We go through twelve molecules from US4652637A, “Steroidal glycolipids” (priority 1985, dated 1987).

Test [1] relates to Pseudomonas aeruginosa (Immunotype 1). Kind of test: In vivo protection against Pseudomonas aeruginosa infection in cyclophosphamide-immunosuppressed CFl female mice (LD50 / protective index). As to conditions: CY-treated mice, LD50 (CY + test compound) / LD50 (CY alone); for Protective Index (log): Table 3, Pseudomonas aeruginosa, dose and route not given; for P.I. (log): PA, sub cutaneous. How it is done: (§1) Groups of 15-20 CFl female mice (Charles River Breeding, Cambridge, MA) weighing 22-28 gm were injected intraperitoneally (i.p.) with cyclophosphamide (Cytoxan; CY) at 250 mg per kg body weight. One to two hours later they were typically injected again with the test material by the route specified. Four days later, the mice were divided into groups of five, each of which were injected i.p. with a different dilution of a suspension of Pseudomonas aeruginosa (Immunotype 1). The number of survivors was determined periodically and an estimate was made of the number of CFU of Pseudomonas organisms necessary to cause 50% lethality by the cumulative method of L. J. Reed and H. Muench (Am. J. Hygeine 27 (1938) 493-497). A protective index (P.I.) was defined as the LD50 for the mice receiving cyclophosphamide and the test compound divided by the LD50 for the mice receiving cyclophosphamide alone. All control mice were injected with aqueous vehicle in the same route and schedule as the test animals.
(§2) All compounds for dosing were suspended in a sterile medium referred to as "aqueous vehicle" which contains 0.9% sodium chloride, 0.5% carboxymethyl cellulose, 0.4% Tween 80, and 0.9% benzyl alcohol unless otherwise stated. Test materials were evaluated via subcutaneous (s.c.), i.p., intramuscular (i.m.), orally (p.o.). and intravenous (i.v.) routes of administration. The initial test dose was 40 mg per kg per mouse, with each active compound subsequently titrated below this level.
(§3) All bacteria were inoculated i.p. to induce infection in the in vivo experiments. Candida albicans, however, was administered i.v. Bacteria cultures were harvested in the log phase, washed with phosphate buffered saline (PBS, and resuspended in PBS containing 10% glycerol for freezing at -70° C. in 1 ml aliquots. The number of […] (cfu's) was determined before and after freezing. Frozen cultures were routinely thawed and diluted in sterile PBS just prior to inoculation. Viable cell counts were routinely done on thawed cultures the day of challenge to determine the number of cfu's. Candida albicans was stored in distilled water at room temperature. Viable cell counts were determined the day of testing.
(§4) The testing and results of 6-(5-cholesten-3β-yloxy)hexyl-1-thio-β-D-mannopyranoside (Example 2) against various orgaisms is shown in Table 2.

Another test has as its system Staphylococcus aureus. Kind of test: In vivo protection against Staphylococcus aureus infection in cyclophosphamide-immunosuppressed mice (LD50 / protective index). To be noted: SA, CY-treated mice, sub cutaneous, LD50 (CY + test compound) / LD50 (CY alone). The protocol: as §1, §2, §3, §4
The subject of a further test is Candida albicans. Kind of test: In vivo protection against Candida albicans infection in cyclophosphamide-immunosuppressed mice (LD50 / protective index). As to conditions: CA i.v., CY-treated mice, sub cutaneous, LD50 (CY + test compound) / LD50 (CY alone). How it is done: as §1
All compounds for dosing were suspended in a sterile medium referred to as "aqueous vehicle" which contains 0.9% sodium chloride, 0.5% carboxymethyl cellulose, 0.4% Tween 80, and 0.9% benzyl alcohol unless otherwise stated. Test materials were evaluated via subcutaneous (s.c.), i.p., intramuscular (i.m.), orally (p.o.). and intravenous (i.v.) routes of administration. […]
as §3, with “testing. […]” for “testing.”

Consider `CC(C)CCC[C@@H](C)[C@H]1CC[C@H]2[C@@H]3CC=C4C[C@@H](OCCCCCCS[C@H]5O[C@H](CO)[C@@H](O)[C@H](O)[C@@H]5O)CC[C@]4(C)[C@H]3CC[C@]12C` [Example 1, 6-(5-Cholesten-3β-yloxy)hexyl 1-thio-α-D-mannopyranoside], for which the “Protective Index (log)” value in test [1] is given as 1.5 log.
Consider `CC(C)CCC[C@@H](C)[C@H]1CC[C@H]2[C@@H]3CC=C4C[C@@H](OCCCCCCS[C@@H]5O[C@H](CO)[C@@H](O)[C@H](O)[C@@H]5O)CC[C@]4(C)[C@H]3CC[C@]12C` [Example 2, 6-(5-Cholesten-3β-yloxy)hexyl 1-thio-β-D-mannopyranoside], for which the “P.I. (log)” value in the test on Staphylococcus aureus (5 mg/kg) came to 0.99 log; in the test with Staphylococcus aureus (10 mg/kg), 1.47 log; in the test on Staphylococcus aureus (20 mg/kg), 1.83 log; in the test with Staphylococcus aureus (40 mg/kg), 2.66 log; in the test on Candida albicans (10 mg/kg), 0.67 log; with Candida albicans (20 mg/kg), 0.81 log. Further, the “P.I. (log)” value with Candida albicans (40 mg/kg) amounted to 1 log; in test [1] (10 mg/kg), 2.75 log; in test [1] (20 mg/kg) it was 3.75 log; in test [1] (40 mg/kg) it was 4.33 log; in test [1] (80 mg/kg), 4.66 log. For the same molecule, in test [1], the “Protective Index (log)” value came to 4.5 log.
As for `CC(C)CCC[C@@H](C)[C@H]1CC[C@H]2[C@@H]3CC=C4C[C@@H](OCCCCCCS[C@@H]5O[C@@H](C)[C@@H](O)[C@@H](O)[C@@H]5O)CC[C@]4(C)[C@H]3CC[C@]12C` [Example 3, 6-(5-Cholesten-3β-yloxy)hexyl 1-thio-α-L-fucopyranoside], the “Protective Index (log)” value in test [1] worked out at 2.8 log.
Same read-out and setting: for `CC(C)CCC[C@@H](C)[C@H]1CC[C@H]2[C@@H]3CC=C4C[C@@H](OCCCCCCS[C@H]5O[C@@H](C)[C@@H](O)[C@@H](O)[C@@H]5O)CC[C@]4(C)[C@H]3CC[C@]12C` [Example 4, 6-(5-Cholesten-3β-yloxy)hexyl 1-thio-β-L-fucopyranoside] the value was 1.3 log; for `CC(C)CCC[C@@H](C)[C@H]1CC[C@H]2[C@@H]3CC=C4C[C@@H](OCCOCCS[C@@H]5O[C@H](CO)[C@@H](O)[C@H](O)[C@@H]5O)CC[C@]4(C)[C@H]3CC[C@]12C` [Example 5, 2-(2-(5-Cholesten-3β-yloxy)ethoxy)ethyl 1-thio-β-D-mannopyranoside], 1.7 log; for `CC[C@H](C=C[C@@H](C)[C@H]1CC[C@H]2[C@@H]3CC=C4C[C@@H](OCCCCCCS[C@@H]5O[C@H](CO)[C@@H](O)[C@H](O)[C@@H]5O)CC[C@]4(C)[C@H]3CC[C@]12C)C(C)C` [Example 6, 6-(Stigmasta-5,22-dien-3β-yloxy)hexyl 1-thio-β-D-mannopyranoside], 2.0 log.
Turning to `CC(=O)[C@H]1CC[C@H]2[C@@H]3CC=C4C[C@@H](OCCCCCCS[C@@H]5O[C@H](CO)[C@@H](O)[C@H](O)[C@@H]5O)CC[C@]4(C)[C@H]3CC[C@]12C` [Example 7, 6-(Pregn-5-en-20-one-3β-yloxy)hexyl 1-thio-βD-mannopyranoside], the “Protective Index (log)” value in test [1] was determined as 3.5 log.
Consider `COC(=O)[C@H]1CC[C@H]2[C@@H]3CC=C4C[C@@H](OCCCCCCS[C@@H]5O[C@H](CO)[C@@H](O)[C@H](O)[C@@H]5O)CC[C@]4(C)[C@H]3CC[C@]12C` [Example 8, 6-(17β-Carbomethoxy-androst-5-en-3β-yloxy)hexyl 1-thio-β-D-mannopyranoside], for which the “Protective Index (log)” value in test [1] was determined as 2.5 log.
For the molecule `C[C@]12CC[C@H]3[C@@H](CC=C4C[C@@H](OCCCCCCS[C@@H]5O[C@H](CO)[C@@H](O)[C@H](O)[C@@H]5O)CC[C@@]43C)[C@@H]1CC[C@@H]2C(N)=O` [Example 9, 6-(17β-Carbamido-androst-5-en-3β-yloxy)hexyl 1-thio-β-D-mannopyranoside], the “Protective Index (log)” value in test [1] amounted to 2.5 log.
As to `CC(O)[C@H]1CC[C@H]2[C@@H]3CC=C4C[C@@H](OCCCCCCS[C@@H]5O[C@H](CO)[C@@H](O)[C@H](O)[C@@H]5O)CC[C@]4(C)[C@H]3CC[C@]12C` (stereo partly drawn) [Example 10, 6-(Pregn-5-en-20-ol-3β-yloxy)hexyl 1-thio-β-D-mannopyranoside], the “Protective Index (log)” value in test [1] was found to be 1.3 log.
On to `CC(=O)N[C@@H](C)[C@H]1CC[C@H]2[C@@H]3CC=C4C[C@@H](OCCCCCCS[C@@H]5O[C@H](CO)[C@@H](O)[C@H](O)[C@@H]5O)CC[C@]4(C)[C@H]3CC[C@]12C` [Example 11, 6-(20S-Acetamido-pregn-5-en-3β-yloxy)hexyl 1-thio-β-D-mannopyranoside], for which, in test [1], the “Protective Index (log)” value came to 3.0 log.
`CC(=O)N[C@H](C)[C@H]1CC[C@H]2[C@@H]3CC=C4C[C@@H](OCCCCCCS[C@@H]5O[C@H](CO)[C@@H](O)[C@H](O)[C@@H]5O)CC[C@]4(C)[C@H]3CC[C@]12C` [Example 12, 6-(20R-Acetamido-pregn-5-en-3β-yloxy)hexyl 1-thio-β-D-mannopyranoside]: in test [1], the “Protective Index (log)” value was 2.6 log.
